Values quoted from earlier work in the PKSmart pharmacokinetics tables (Seal et al. 2025).

Assay: Lombardo, Berellini, Obach 2018, Drug Metab Dispos 46:1466, doi 10.1124/dmd.118.082966
Settings: human; for MRT / Vd / clearance / half-life: in vivo, iv; for fraction unbound: plasma

| SMILES | MRT | Vd | clearance | half-life | fraction unbound |
| --- | --- | --- | --- | --- | --- |
| C[N+](C)(C)C[C@H](O)CC(=O)[O-] | 4.2 h | 0.4 L/kg | 1.6 mL/min/kg | 5 h | 1 |
| COC(=O)C1[C@@H](O)CC[C@H]2CN3CCc4c([nH]c5ccccc45)[C@@H]3C[C@@H]12 (some centres not stated) | 0.5 h | 0.48 L/kg | 14.6 mL/min/kg | 1.5 h |  |
| CC1CNc2c(cccc2S(=O)(=O)NC(CCCNC(=N)N)C(=O)N2CC[C@@H](C)CC2C(=O)O)C1 (some centres not stated) | 0.57 h | 0.17 L/kg | 5 mL/min/kg | 0.4 h | 0.46 |
| Cc1ccc(Sc2ccccc2N2CCNCC2)c(C)c1 | 101 h | 35.3 L/kg | 5.8 mL/min/kg | 72 h | 0.02 |
| COC1C(=O)C(C)C[C@H](C)C=CC=CC=C(C)[C@@H](OC)C[C@@H]2CC[C@@H](C)[C@@](O)(O2)C(=O)C(=O)N2CCCCC2C(=O)O[C@H]([C@H](C)C[C@@H]2CC[C@@H](OP(C)(C)=O)[C@H](OC)C2)CC(=O)C(C)=CC(C)[C@H]1O (some centres not stated) | 48.5 h | 3.2 L/kg | 1.1 mL/min/kg | 46.3 h |  |
| O=C(NC[C@H](O)CO)c1ccncc1Nc1ccc(I)cc1F | 3.55 h | 1.8 L/kg | 8.71 mL/min/kg | 4.59 h |  |
| CCCc1nc2c(C)cc(-c3nc4ccccc4n3C)cc2n1Cc1ccc(-c2ccccc2C(=O)O)cc1 | 11 h | 5.3 L/kg | 8.4 mL/min/kg | 20 h |  |
| COc1ccc2[n-]c([S@+](O)Cc3ncc(C)c(OC)c3C)nc2c1 | 0.9 h | 0.2 L/kg | 3.85 mL/min/kg | 0.83 h | 0.03 |
| Nc1nc(=O)c2c([nH]1)NCC(CNc1ccc(C(=O)NC(CCC(=O)O)C(=O)O)cc1)N2C=O (configuration not stated) | 0.8 h | 0.25 L/kg | 5.8 mL/min/kg | 1.3 h |  |
| CC1(C)[C@H]2CC[C@@]3(C)C(C(=O)C=C4C5C[C@](C)(C(=O)O)CC[C@@]5(C)CC[C@@]43C)[C@]2(C)CC[C@H]1O[C@H]1OC(C(=O)O)[C@@H](O)[C@H](O)[C@H]1O[C@@H]1OC(C(=O)O)[C@@H](O)[C@H](O)[C@H]1O (some centres not stated) | 30.9 h | 0.09 L/kg | 0.05 mL/min/kg | 23.1 h |  |
| NCCCCC(NC1CCc2ccccc2N(CC(=O)O)C1=O)C(=O)O (configuration not stated) | 29.3 h | 1.98 L/kg | 1.23 mL/min/kg |  |  |
| CC(=O)N(O)CCCCCNC(=O)CCC(=O)N(O)CCCCCNC(=O)CCC(=O)N(O)CCCCCN | 2.7 h | 1.35 L/kg | 8.33 mL/min/kg | 3.05 h |  |
| CC(=O)O[C@H]1C[C@]2(O)[C@H]3CC[C@H]4C[C@H](O[C@H]5C[C@@H](O)[C@@H](O[C@H]6C[C@@H](O)[C@@H](O[C@H]7C[C@@H](O)[C@@H](O)[C@H](C)O7)[C@H](C)O6)[C@H](C)O5)CC[C@@]4(C)[C@H]3CC[C@]2(C)[C@H]1C1=CC(=O)OC1 | 72.3 h | 0.78 L/kg | 8.7 mL/min/kg | 51.6 h | 0.07 |
| CCOC(=O)C(CCc1ccccc1)NC(C)C(=O)N1C(C(=O)O)C[C@H]2CCCC[C@H]21 (some centres not stated) |  |  |  |  | 0.17 |
| C[n+]1ccccc1C=NO | 1.5 h | 0.8 L/kg | 9 mL/min/kg | 1.4 h | 1 |
| O=c1[nH]cnc2[nH]ncc12 | 0.88 h | 0.58 L/kg |  |  |  |
| CCN(CC)CCCC(C)Nc1c2ccc(Cl)cc2nc2ccc(OC)cc12 (configuration not stated) | 150 h | 45 L/kg | 5.1 mL/min/kg | 120 h |  |
| CCCC(=O)N1CCCN(c2nc(N)c3cc(OC)c(OC)cc3n2)CC1 | 2.5 h | 0.72 L/kg | 4.8 mL/min/kg | 2 h | 0.06 |
| O=C(O)c1cc(/N=N/c2ccc(S(=O)(=O)Nc3ccccn3)cc2)ccc1O | 6.8 h | 0.11 L/kg | 0.26 mL/min/kg | 7.6 h | 0.004 |
| CC[C@@]1(O)C(=O)OCc2c1cc1n(c2=O)Cc2cc3cc(O)ccc3nc2-1 | 1.63 h | 0.22 L/kg | 2.23 mL/min/kg | 1.67 h |  |
| CCC(C)n1ncn(-c2ccc(N3CCN(c4ccc(OCC5COC(Cn6cncn6)(c6ccc(Cl)cc6Cl)O5)cc4)CC3)cc2)c1=O (configuration not stated) |  | 7.4 L/kg | 5.1 mL/min/kg | 25 h |  |
| CCCCCCN1CCC(C(=O)N(C)CC)(c2ccccc2)CC1 |  |  | 24 mL/min/kg | 3.6 h |  |
| NCC1CCC(C(=O)O)CC1 (configuration not stated) | 2.6 h | 0.38 L/kg | 2.4 mL/min/kg | 2.3 h |  |
| C[C@H](/C=C/[C@H](C)C(C)(C)O)[C@H]1CC[C@H]2/C(=C/C=C3C[C@@H](O)C[C@H](O)C3)CCC[C@]12C | 7.7 h | 0.41 L/kg | 0.89 mL/min/kg | 5.3 h |  |
| COc1ccccc1Oc1c(NS(=O)(=O)c2ccc(C(C)C)cn2)nc(-c2ccnc(-c3nnn[nH]3)c2)nc1OCCO |  | 0.28 L/kg | 8.1 mL/min/kg | 3.8 h | 0.0085 |

| SMILES | MRT | Vd | clearance | half-life | fraction unbound |
| --- | --- | --- | --- | --- | --- |
| COC(=O)NC(C(=O)N1CCC[C@H]1c1ncc(-c2ccc(-c3ccc(-c4cnc([C@@H]5CCCN5C(=O)C(NC(=O)OC)C(C)C)[nH]4)cc3)cc2)[nH]1)C(C)C (some centres not stated) | 11.2 h | 0.67 L/kg | 1 mL/min/kg | 13.5 h | 0.01 |
| Cc1cc(O)c2c(=O)c3c(O)cc(O)c4c5c(O)cc(O)c6c(=O)c7c(O)cc(CO)c8c1c2c(c34)c(c65)c78 | 15 h | 0.56 L/kg | 0.62 mL/min/kg | 20 h |  |
| COc1ccc(/C=C\c2cc(OC)c(OC)c(OC)c2)cc1NC(=O)C(N)CO (configuration not stated) | 0.32 h | 0.44 L/kg | 22.6 mL/min/kg | 0.26 h |  |
| CN1C(=O)C(O)N=C(c2ccccc2Cl)c2cc(Cl)ccc21 (configuration not stated) | 6.7 h | 1.6 L/kg | 4 mL/min/kg | 4.9 h |  |
| NCCc1ccc(O)c(O)c1 | 0.19 h | 0.74 L/kg | 65.9 mL/min/kg | 0.42 h | 0.87 |
| COc1ccc(CCN(C)CCCN2CCc3cc(OC)c(OC)cc3CC2=O)cc1OC | 3.2 h | 1.6 L/kg | 8.4 mL/min/kg | 2.8 h |  |
| C[C@@H](NCCc1ccc(O)cc1)[C@@H](O)c1ccc(O)cc1 | 2.4 h | 4.4 L/kg | 31 mL/min/kg | 2.6 h | 0.64 |
| CCOC(=O)C(CCc1ccccc1)NC(C)C(=O)N1CC2(CC1C(=O)O)SCCS2 (configuration not stated) | 0.61 h | 0.43 L/kg | 11.9 mL/min/kg | 8.6 h |  |
| CCCC(C)C1(CC)C(=O)NC(=S)NC1=O (configuration not stated) | 2.4 h | 1.2 L/kg | 8.2 mL/min/kg | 2 h | 0.14 |
| CCCNC(C)C(=O)Nc1c(C)csc1C(=O)OC (configuration not stated) | 1.04 h | 7.7 L/kg | 127 mL/min/kg | 0.98 h | 0.46 |
| COc1ccc(OC)c([C@H](O)CNC(=O)CN)c1 | 0.4 h | 0.67 L/kg | 27.9 mL/min/kg | 0.6 h | 0.7 |
| Nc1nc2ccc(OC(F)(F)F)cc2s1 | 5.2 h | 3.5 L/kg | 11.3 mL/min/kg |  | 0.04 |
| CSCCC(N)C(=O)N[C@@]1(C(=O)O)CS(=O)(=O)[C@H]2C(C(=O)O)[C@H]21 (some centres not stated) | 0.75 h | 0.44 L/kg | 9.73 mL/min/kg | 0.84 h |  |
| CN(C)CCN1C(=O)c2cccc3cc([N+](=O)[O-])cc(c23)C1=O | 5.6 h | 11.3 L/kg | 34.6 mL/min/kg | 28.7 h |  |
| CC(C1=C(CCN(C)C)Cc2ccccc21)c1ccccn1 (configuration not stated) | 5.98 h | 2.16 L/kg | 4.83 mL/min/kg | 4.6 h |  |
| CN(C)N=Nc1ccc(C(=O)O)cc1 | 3 h | 0.25 L/kg | 1.3 mL/min/kg | 2.5 h |  |
| CN1C[C@H](CNC(=O)OCc2ccccc2)C[C@@H]2c3cccc4c3c(cn4C)C[C@H]21 | 1 h | 0.57 L/kg | 9.6 mL/min/kg | 0.93 h |  |
| C=CCN1CC[C@]23c4c5ccc(O)c4OC2C(=O)CC[C@@]3(O)[C@H]1C5 (some centres not stated) | 1.2 h | 1.7 L/kg |  | 1.1 h | 0.54 |
| CC(C)(C)c1[nH]cnc1/C=c1\[nH]c(=O)/c(=C/c2ccccc2)[nH]c1=O | 6.7 h | 3 L/kg | 7.4 mL/min/kg | 6.3 h |  |
| Nc1nc(F)nc2c1ncn2[C@@H]1O[C@H](CO)[C@@H](O)[C@@H]1O | 12 h | 2.2 L/kg | 3.2 mL/min/kg | 11 h | 0.76 |
| N#C[C@@H](O[C@@H]1O[C@H](CO[C@@H]2O[C@H](CO)[C@@H](O)[C@H](O)[C@H]2O)[C@@H](O)[C@H](O)[C@H]1O)c1ccccc1 | 1.83 h | 0.21 L/kg | 1.88 mL/min/kg | 1.23 h |  |
| CCCn1c(=O)c2[nH]c(C34CCC(CCC(=O)O)(CC3)CC4)nc2n(CCC)c1=O | 11.7 h | 0.76 L/kg | 1.08 mL/min/kg | 16 h | 0.1 |
| Cc1cc(Nc2cc(N3CCN(C)CC3)nc(Sc3ccc(NC(=O)C4CC4)cc3)n2)n[nH]1 | 4.5 h | 5.1 L/kg | 18.4 mL/min/kg | 8.4 h |  |
| CNC(=O)Nc1c(OCCN2CCCC2)c(OC)c2occc2c1OC | 4.2 h | 0.8 L/kg | 3.2 mL/min/kg | 5 h |  |
| CC[C@@]1(O)C(=O)OCc2c1cc1n(c2=O)Cc2c-1nc1cc(F)c(C)c3c1c2[C@@H](N)CC3 | 7.6 h | 0.44 L/kg | 0.96 mL/min/kg | 6.7 h |  |
